Among the data in publication PMC10740580, “Benzothiazole-Phthalimide Hybrids as Anti-Breast Cancer and Antimicrobial Agents” (Antibiotics, 2023) are IC50 values, retold here.

Each structure is given as a SMILES string.

This assay deals with BALB/3T3 cells. The experiment in a line: MTT assay, BALB/3T3 fibroblasts. The conditions noted are these: mouse fibroblasts, read-out: IC50 BALB/3T3 (MTT, lack of toxicity). Type of assay: cell-based. The method, then: Cells were treated for 24 h, and N-acetylcystein (NAC), a compound well-known for its antioxidant capacity, was used as a reference molecule. […] Compound 3h was able to reduce ROS formation by 61.4 ± 2% at the maximum concentration of 160 μM in the BALB/3T3 cells, as shown by the quantification of fluorescence intensity, proving compound 3h to be a good ROS scavenger.
The four cell lines used in this work (MCF-7, MDA-MB-231, MCF-10A, and 3T3-L1) were obtained from the American Type Culture Collection (ATCC, Manassas, VA, USA). All cell lines were maintained at 37 °C in a humidified atmosphere of 95% air and 5% CO2 and periodically screened for contamination. […]
Cell viability was evaluated by means of the 3-(4,5-dimethylthiazol-2-y1)-2,5-diphenyltetra zolium bromide (MTT, Sigma-Aldrich, Milan, Italy) assay. […] Cells were lysed with DMSO after 2 h of incubation at 37 °C, and optical density at 570 nm was then determined with a microplate reader. Using GraphPad Prism 9 software (GraphPad Inc., San Diego, CA, USA), the mean absorbance for each sample was expressed as a percentage over the control and plotted vs. drug concentrations to establish the IC50 values. […]
A general note: Tetrazolium dyes change colour on reduction, which living cells bring about.

With `O=C1c2ccccc2C(=O)N1c1nc2ccc(Oc3ccccc3)cc2s1` [3h, 2-[6-Phenoxy-1,3-benzothiazol-2-yl]-1H-isoindole-1,3(2H)-dione], the IC50 was > 200 µM.
